From patent publication US9267129B2, “Compositions and methods for conferring herbicide resistance” (BEN-GURION UNIVERSITY OF THE NEGEV RESEARCH AND DEVELOPMENT …, priority 2011, dated 2016)

Tests used:
PiAHAS wild-type [1] = molecular target: T1, PiAHAS wild-type (Parietochloris incisa (Lobosphaera incisa), UniProt I3VJH2, D350G/R415C); assay: PiAHAS in vitro enzyme assay, inhibition by SMM (wild type); format: biochemical; details: wild type; very low concentration of SMM
T1 sequence (I3VJH2 1-707 D350G/R415C): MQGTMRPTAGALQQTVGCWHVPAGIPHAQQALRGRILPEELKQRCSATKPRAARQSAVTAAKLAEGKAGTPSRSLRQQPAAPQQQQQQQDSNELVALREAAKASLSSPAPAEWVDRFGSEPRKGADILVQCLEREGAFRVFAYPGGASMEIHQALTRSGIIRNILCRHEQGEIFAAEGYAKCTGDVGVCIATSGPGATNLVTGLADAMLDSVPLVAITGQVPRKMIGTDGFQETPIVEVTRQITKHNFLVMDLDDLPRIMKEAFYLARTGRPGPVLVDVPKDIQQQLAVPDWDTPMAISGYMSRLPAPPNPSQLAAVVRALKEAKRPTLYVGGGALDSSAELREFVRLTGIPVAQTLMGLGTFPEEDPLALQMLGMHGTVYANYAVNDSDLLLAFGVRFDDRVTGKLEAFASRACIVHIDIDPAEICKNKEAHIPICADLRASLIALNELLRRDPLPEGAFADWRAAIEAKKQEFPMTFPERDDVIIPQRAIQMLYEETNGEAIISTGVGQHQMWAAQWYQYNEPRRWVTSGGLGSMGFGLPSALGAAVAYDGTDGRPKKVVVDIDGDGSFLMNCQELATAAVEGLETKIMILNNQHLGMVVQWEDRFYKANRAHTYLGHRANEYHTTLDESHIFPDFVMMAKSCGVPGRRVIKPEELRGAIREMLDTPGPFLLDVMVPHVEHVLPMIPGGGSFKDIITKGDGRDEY
Protocol: (§1) To overexpress the hexahistidine (6xHis)-tagged PiAHAS genes in E. coli strain JM109, plasmids pQE-WT and pQE-MUT were used. These plasmids were constructed by inserting the BamHI-SalI fragment containing the cloned PiAHAS wt and mutant genes into plasmid pQE30 (Qiagen, Hilden, Germany). These plasmids express PiAHAS fused at its N-terminus to the pQE30 6xHis leader. pQE-WT and pQE-MUT were transformed into E. coli for expression. […] The AHAS catalytic activity was determined as previously described (Bar-Ilan A et al. Binding and activation of thiamin diphosphate in acetohydroxyacid synthase. Biochemistry (N.Y.) 2001, 40, 11946-11954). […] Km for pyruvate and Ki for SMM were determined by varying the concentration of the factor in question. Protein concentration was determined by the dye-binding method of Bradford (Bradford MM. A rapid and sensitive method for the quantitation of microgram quantities of protein utilizing the principle of protein-dye binding. Anal. Biochem. 1976, 72, 248-254), with bovine serum albumin as standard. […]
(§2) The Ki was determined to be >30×106, 7 orders of magnitude higher than that of the wild type.

PiAHAS wild-type [2] = molecular target: T2, PiAHAS wild-type (Parietochloris incisa (Lobosphaera incisa), UniProt I3VJH2); assay: as above; format: biochemical; details: wild-type AHAS; pyruvate 100 mM; 37° C., pH 7.6
T2 sequence (I3VJH2 1-707 D350G/R415C): T1 sequence (I3VJH2 1-707 D350G/R415C)
Protocol: as §1, §2

## COC(=O)c1ccccc1S(=O)(=O)NC(=O)Nc1nc(C)cc(C)n1 [SMM, sulfometuron methyl]
PiAHAS wild-type [1]
  inhibition of enzyme by SMM: strongly inhibited
PiAHAS wild-type [2]
  Ki: 150 nM
